Data: ChEMBL document CHEMBL4190403, “Design, synthesis, and biological evaluation of pyrazole derivatives containing acetamide bond as potential BRAFV600E inhibitors” (Bioorg Med Chem Lett, 2018)

Key:
HT-29 = assay: Antiproliferative activity against human HT-29 cells harboring BRAF V600E mutant after 24 hrs by MTT assay; format: functional, cell-based; conditions: HT-29, 24 h
A-375 [1] = assay: Induction of apoptosis in human A375 cells assessed as viable cells at 1 uM after 24 hrs by Annexin V-FITC/propidium iodide staining based flow cytometry (reference value: 90.6 to 94.3%); format: functional; conditions: A-375, 24 h, read-out: Activity
A-375 [2] = assay: Induction of apoptosis in human A375 cells assessed as viable cells at 3 uM after 24 hrs by Annexin V-FITC/propidium iodide staining based flow cytometry (reference value: 90.6 to 94.3%); format: functional; conditions: A-375, 24 h, read-out: Activity
A-375 [3] = assay: Induction of apoptosis in human A375 cells assessed as necrotic cells at 10 uM after 24 hrs by Annexin V-FITC/propidium iodide staining based flow cytometry (reference value: 0.635 to 3.12%); format: functional
A-375 [4] = assay: Induction of apoptosis in human A375 cells assessed as late apoptotic cells at 10 uM after 24 hrs by Annexin V-FITC/propidium iodide staining based flow cytometry (reference value: 3.80 to 4.61%); format: functional
A-375 [5] = assay: Induction of apoptosis in human A375 cells assessed as viable cells at 10 uM after 24 hrs by Annexin V-FITC/propidium iodide staining based flow cytometry (reference value: 90.6 to 94.3%); format: functional; conditions: A-375, 24 h, read-out: Activity
A-375 [6] = assay: Induction of apoptosis in human A375 cells assessed as necrotic cells at 3 uM after 12 hrs by Annexin V-FITC/propidium iodide staining based flow cytometry (reference value: 0.635 to 3.12%); format: functional
A-375 [7] = assay: Induction of apoptosis in human A375 cells assessed as late apoptotic cells at 3 uM after 12 hrs by Annexin V-FITC/propidium iodide staining based flow cytometry (reference value: 3.80 to 4.61%); format: functional
A-375 [8] = assay: Induction of apoptosis in human A375 cells assessed as necrotic cells at 3 uM after 36 hrs by Annexin V-FITC/propidium iodide staining based flow cytometry (reference value: 0.635 to 3.12%); format: functional
A-375 [9] = assay: Induction of apoptosis in human A375 cells after 24 hrs by Annexin V-FITC/propidium iodide staining based flow cytometry; format: functional, cell-based
A-375 [10] = assay: Cell cycle arrest in human A375 cells assessed as accumulation at G1 phase after 24 hrs by propidium iodide staining-based flow cytometry; format: functional
A-375 [11] = assay: Cell cycle arrest in human A375 cells assessed as accumulation at G1 phase at 3 uM by propidium iodide staining-based flow cytometry; format: functional; conditions: TDE = time-dependent effect

## COc1ccc(-n2cc(NC(=O)Cn3ccc(-c4cccc(Cl)c4)n3)cn2)cc1
HT-29
  IC50: 2170 nM
A-375 [1]
  viability at 1 µM: 79.5%
A-375 [2]
  viability at 3 µM: 64.7 to 72.9%
A-375 [3]
  Activity: 7.54%
A-375 [4]
  Activity: 37.5%
A-375 [5]
  viability at 10 µM: 53.2%
A-375 [6]
  Activity: 9.77%
A-375 [7]
  Activity: 19.7%
A-375 [8]
  Activity: 5.58%
A-375 [9]
  Activity: Dose-dependent effect
A-375 [10]
  Activity: Dose-dependent effect
A-375 [11]
  Activity: Tde
